# Measurements from PMC5705213, “Immunoproteasome functions explained by divergence in cleavage specificity and regulation” (eLife, 2017).
# *1 amine or outer side, *2 acyl side, *3 side chain or, on linkers, in order; H or OH if unused. Where a SMILES comes first, the peptide text is derived from it. The star is where a group is joined. ACC = NC(=O)Cc1cc(=O)oc2cc(N*)ccc12; AMC = Cc1cc(=O)oc2cc(N*)ccc12; Suc = O=C(CCC(=O)[*:2])[*:1]
# Experiments:
# [1] = biological target: T1, human immunoproteasome core particle (i20S) (Homo sapiens, UniProt P20618+P28062); assay: Purified proteasome activity assay with fluorogenic substrates, SDS-activated i20S; type: biochemical
# T1 construct: purchased Boston Biochem E-370
# Experimental: Non-prime-side substrate specificity profiling was performed with a complete, diverse library of 160,000 fluorogenic substrates containing the general structure acetyl-P4-P3-P2-P1-(7-amino-4-carbamoylmethylcourmarin, ACC) ([Harris et al., 2000]). For each sub-library, 10 nM human i20S or c20S underwent SDS pre-activation for 1 hr at room temperature in assay buffer (20 mM Tris, pH 8.0, 0.5 mM EDTA) containing 0.03% SDS. […] Activity assays were carried out over 1 hr following two-fold sample dilution in the same 0.03% SDS-containing buffer that also contained a 250 μM final concentration of PS-SCL substrate pool. Activity was recorded in black 96-well round bottom plates (Costar, COrning, NY) using a BioTek Synergy H4 Hybrid Multi-Mode Microplate Reader set to λex = 380 nm and λem = 460 nm (gain = 63). Initial velocity in relative fluorescence units per second (RFU/s) was calculated using a linear fit of the progress curves with Gen5 software v.2.03.
# Activity assays with individual fluorogenic substrates were carried out as described above for the PS-SCL assays using final concentrations of 5 nM SDS-activated i20S or c20S and 10 μM substrate except where noted below. The commercial substrates Suc-LLVY-AMC, Ac-WLA-AMC (Boston Biochem, S-330), and Ac-ANW-AMC (Boston Biochem, S-320) were used as supplied. To convert cleaved substrate RFU to free AMC or ACC dye concentration, calibration curves were prepared through total enzymatic hydrolysis of ACC- or AMC-containing peptides that had been quantified through amino acid analysis (Alphalyse, Inc.). Substrate selectivity of PA28α- and SDS-activated 20S proteasomes was compared following 1 hr pre-incubation at room temperature either in the presence of 0.03% SDS or with 12 molar equivalents of PA28α activator in the absence of SDS. For substrate selectivity assays with mixed, purified proteasomes, i20S and c20S underwent individual SDS pre-activation prior to assaying with 5 nM final concentration of pooled 20S. Proteasome ratio assays were performed with 10 μM EWFW-ACC, 30 μM iso-VQA-ACC, and 30 μM Suc-LLVY-AMC. All activity measurements were recorded on the BioTek plate reader described above using λex = 380 nm and λem = 460 nm (gain = 63) for ACC substrates and Suc-LLVY-AMC; 345 nm and λem = 445 nm (gain = 63) for Ac-WLA-AMC and Ac-ANW-AMC; and λex = 328 nm and λem = 393 nm (gain = 75) for the GEWHWPS IQ substrate. Michaelis-Menten calculations were performed using a non-linear fit in Prism v.6.0.
# [2] = test system: LMP7 / β5; assay: MOLT-4 lysate proteasome activity assay, IC50, LLVY-AMC substrate; type: biochemical, human; details: 1 hr pre-incubation, 30 μM Suc-LLVY-AMC, read-out: IC50, detection method LLVY-AMC, subunit LMP7 / β5
# Experimental: Three lysates containing varied proteasome ratios (whole blood, PBMCs, and the MOLT-4 cell line) were assayed in the absence or presence of proteasome inhibitors as described above. Lysates were generated by washing cells in PBS and lysing the resulting cell pellet in a two-fold greater volume of cold lysis buffer (20 mM Tris, pH 8.0, 5 mM EDTA). Total protein concentration was determined using the BCA Protein Assay Kit (Thermo Scientific Pierce) with bovine serum albumin (BSA) as the protein standard. […] Activity assays were carried out over 1 hr following two-fold sample dilution in the same assay buffer containing final concentrations of 10 μM NH2-EWFW-ACC, 30 μM iso-VQA-ACC, or 30 μM Suc-LLVY-AMC. Activity measurements were recorded on the BioTek plate reader described above in 384-well plates using either λex = 380 nm and λem = 460 nm (gain = 85) for the ACC substrates or λex = 345 nm and λem = 445 nm (gain = 85) for the AMC substrate.
# [3] = test system: SUP-B15 cell line; assay: Cellular proteasome inhibition and recovery assay, SUP-B15; type: cell-based, human; details: SUP-B15, one-hour pulse, 24 hr time course
# Experimental: (§1) SUP-B15 and MOLT-4 cells were seeded at 2 × 10^6/mL in RPMI media containing 10% FBS 24 hr prior to inhibition assays; PBMC vials were thawed and seeded at 4.4 × 10^6/mL in RPMI media with 10% FBS 3 hr prior to inhibition assays. Cells were diluted 2-fold with serum-free RPMI media containing 2X inhibitor or vehicle control (0.5% DMSO and 5% FBS final). Inhibitor treatments were carried out for 1 hr at 37°C, and to remove unbound inhibitor, cells were immediately washed three times (SUP-B15 and PBMCs) or six times (MOLT-4) with D-PBS for 1 hr time points or RPMI media containing 5% FBS for subsequent time points. Cells were incubated at 37°C for the duration of the time course and washed two times in D-PBS to remove serum upon harvest. The cell pellets were flash-frozen in liquid N2 prior to storage at −80°C.
# (§2) Cell pellets were thawed and incubated for 30 min on ice in non-denaturing lysis buffer (20 mM Tris, pH 8.0, 5 mM EDTA) or RIPA buffer that contained cOmplete^TM EDTA-free inhibitor cocktail (Roche, Pleasanton, CA). Total protein concentration in supernatants was determined using a Bradford Protein Assay Kit (Thermo Scientific Pierce) or BCA Protein Assay Kit (Cell Signaling Technology), respectively, with BSA as the protein standard. Lysate activity assays were performed following 2-fold dilution of 0.1–0.4 mg/mL lysate into assay buffer as described above. […]
# [4] = test system: PSMB8 (LMP7) mRNA; assay: qRT-PCR of PSMB8 (LMP7) mRNA after ONX 0914 pulse treatment; type: cell-based, human; details: SUP-B15, MOLT-4 and PBMCs after one-hour pulse, normalized to GAPDH
# Experimental: as §1
# Total RNA was extracted from cells using the RNeasy Plus Mini kit (Qiagen, Germantown, MD). The quantity and quality of RNA was confirmed by absorption measurements at 260 and 280 nm. […] Efficiencies for each primer/probe set were calculated from a serial dilution of Human Reference Total RNA (Agilent) and were >95%. Relative quantification of gene expression was calculated with the comparative cycle threshold method, normalizing for GAPDH expression levels.
# [5] = test system: rheumatoid arthritis mouse model; parameters: method as in Muchamuel et al., 2009; details: at a significantly lower dose than bortezomib or CFZ; ref Muchamuel et al., 2009; cited from earlier work
# [6] = test system: primary human PBMCs; assay: Cellular proteasome inhibition and recovery assay, PBMCs; type: cell-based; details: primary human PBMCs from healthy donors, one-hour pulse, 24 hr
# Experimental: as §1, §2
# [7] = test system: SUP-B15 cell line; assay: Ubiquitin western blot after one-hour inhibitor pulse treatment; type: cell-based, human; details: ONX 0914 200 nM or PR-825 100 or 125 nM
# Experimental: as §1, §2
# [8] = test system: Nrf1; assay: Nrf1 western blot after ONX 0914 pulse treatment; type: cell-based, human; details: RIPA lysates from the cell lines and PBMCs
# Experimental: as §1, §2
# [9] = biological target: T2, β5 (Homo sapiens, UniProt P20618+P28074); assay: MOLT-4 lysate proteasome activity assay, IC50, iso-VQA-ACC substrate; type: biochemical; details: commercial β5 substrate
# T2 construct: For IC50 measurements with the MOLT-4 lysate; endogenous in cells; host or cells: MOLT-4 lysate
# Experimental: Three lysates containing varied proteasome ratios (whole blood, PBMCs, and the MOLT-4 cell line) were assayed in the absence or presence of proteasome inhibitors as described above. Lysates were generated by washing cells in PBS and lysing the resulting cell pellet in a two-fold greater volume of cold lysis buffer (20 mM Tris, pH 8.0, 5 mM EDTA). Total protein concentration was determined using the BCA Protein Assay Kit (Thermo Scientific Pierce) with bovine serum albumin (BSA) as the protein standard.
# [10] = iP over cP, Michaelis-Menten analysis
compound,measurement,setting,value
CC(=O)N[C@@H](C)C(=O)N[C@@H](CC(N)=O)C(=O)N[C@@H](Cc1c[nH]c2ccccc12)C(=O)Nc1ccc2c(C)cc(=O)oc2c1 [Ac-ANW-AMC] (Ac-Ala-Asn-Trp-{AMC}),Ratio Vmax (i20S/c20S),[1],12
same,Ratio kcat/Km (i20S/c20S),[1],6.0
"CC(C)C[C@H](NC(=O)[C@H](CCc1ccccc1)NC(=O)CN1CCOCC1)C(=O)N[C@@H](Cc1ccccc1)C(=O)N[C@@H](CC(C)C)C(=O)[C@@]1(C)CO1 [CFZ, carfilzomib]",IC50,[2],53 nM
NC(=O)Cc1cc(=O)oc2cc(NC(=O)[C@H](Cc3c[nH]c4ccccc34)NC(=O)[C@H](Cc3ccccc3)NC(=O)[C@H](Cc3c[nH]c4ccccc34)NC(=O)[C@@H](N)CCC(=O)O)ccc12 [EWFW-ACC] (H-EWFW-{ACC}),improvement in Km for the iP,[1]; compared to the parent substrate EWHW-ACC,7 fold
same,Ratio Vmax (i20S/c20S),[1],16
same,Ratio kcat/Km (i20S/c20S),[1],4.0
same,selectivity at Vmax,[1]; [10],16 fold
NC(=O)Cc1cc(=O)oc2cc(NC(=O)[C@H](Cc3c[nH]c4ccccc34)NC(=O)[C@H](Cc3c[nH]cn3)NC(=O)[C@H](Cc3c[nH]c4ccccc34)NC(=O)[C@@H](N)CCC(=O)O)ccc12 [EWHW-ACC] (H-EWHW-{ACC}),Ratio Vmax (i20S/c20S),[1],6.0
same,Ratio kcat/Km (i20S/c20S),[1],8.4
same,iP selectivity,"[1]; iP over cP, 10 μM substrate concentration",4.5 fold
same,selectivity at Vmax,[1]; [10],6 fold
Cc1cc(=O)oc2cc(NC(=O)[C@H](Cc3ccc(O)cc3)NC(=O)[C@@H](NC(=O)[C@H](CC(C)C)NC(=O)[C@H](CC(C)C)NC(=O)CCC(=O)O)C(C)C)ccc12 [LLVY-AMC] (Suc-LLVY-{AMC}),selectivity at Vmax,"[1]; iP and cP, direction not given",2.0 fold
same,ability to distinguish iP and cP in defined mixtures of each proteasome,"[1]; mixed ratios of purified proteasomes, 30 μM substrate",unable to distinguish between the two proteasomes
COc1ccc(C[C@H](NC(=O)[C@H](C)NC(=O)CN2CCOCC2)C(=O)N[C@@H](Cc2ccccc2)C(=O)[C@]2(C)CO2)cc1 [ONX 0914],recovery of LMP7 activity after irreversible inhibition,[3],rapid recovery
same,IC50,[2],256 nM
same,PSMB8 mRNA level,[4],increased PSMB8 mRNA levels
same,disease progression,[5],attenuate disease progression
same,recovery of LMP7 activity after irreversible inhibition,[6],confirmed in primary human PBMCs
same,global ubiquitinated protein level (immunoblot),[7],global accumulation of ubiquitinated protein
same,processed Nrf1 (p110) level (western blot),[8],accumulation of processed Nrf1 (p110)
Cc1cc(C(=O)N[C@H](C(=O)N[C@@H](CCC(N)=O)C(=O)N[C@@H](C)C(=O)Nc2ccc3c(CC(N)=O)cc(=O)oc3c2)C(C)C)no1 [iso-VQA-ACC],Ratio Vmax (i20S/c20S),[1],0.28
same,Ratio kcat/Km (i20S/c20S),[1],0.33
Ac-Trp-Leu-Ala-{AMC},detection of β5 activity in MOLT-4 lysate,[9],unable to specifically detect proteasome activity
